pIC50: −log10 of the molar value. Read-outs that look alike come from different tables or passages of the source. Blank lines part the entries; values can stand above or below the compound they belong to.
Biological target: hT2R8 (Homo sapiens (Human), UniProt Q9NYW2)
Experiment: hT2R8 antagonist high-throughput FLIPR assay, stable cell line with G16g44, agonist andrographolide
Type: cell-based
Conditions: for IC50: unit uM, read-out: IC50 on hT2R08 bitter receptor
In short: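 Antagonist screen: compounds co-applied with agonist andrographolide at 200 μM, a dose giving 70–80% of maximal hT2R8 activation. Fluorescence measured by FLIPR in a stable HEK293 line expressing both hT2R8 and the promiscuous G16g44 protein.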

[1] = table after Example 12-37, read-out: hT2R8 IC50
[2] = table after Example 10-97, read-out: hT2R8 IC50
[3] = read-out: IC50 on hT2R8 bitter receptor

hT2R8, sequence (Q9NYW2 whole entry): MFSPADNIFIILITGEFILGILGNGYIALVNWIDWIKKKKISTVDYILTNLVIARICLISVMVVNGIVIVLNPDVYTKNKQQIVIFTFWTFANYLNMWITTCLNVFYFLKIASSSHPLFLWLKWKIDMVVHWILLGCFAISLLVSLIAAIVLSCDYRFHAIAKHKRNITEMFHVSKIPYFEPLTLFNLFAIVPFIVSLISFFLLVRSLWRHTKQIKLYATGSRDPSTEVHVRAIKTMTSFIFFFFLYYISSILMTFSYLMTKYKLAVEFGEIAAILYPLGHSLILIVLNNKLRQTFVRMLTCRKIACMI

- pIC50 (Table A, read-out: hT2R8 IC50): 5.94
SMILES: COc1ccccc1CC(=O)Nc1cnn(Cc2c(C)noc2C)c1 [Example 4-35, N-(1-((3,5-dimethylisoxazol-4-yl)methyl)-1H-pyrazol-4-yl)-2-(2-methoxyphenyl)acetamide]

- pIC50 [2]: 6.00
- IC50: 1 µM
SMILES: Cc1noc(C)c1Cn1cc(N2C(=O)CN(Cc3cccc(C#N)c3)C2=O)cn1 [Example 10-25, 3-((3-(1-((3,5-dimethylisoxazol-4-yl)methyl)-1H-pyrazol-4-yl)-2,4-dioxoimidazolidin-1-yl)methyl)benzonitrile]

- pIC50 [2]: 6.49
- IC50: 0.3 µM
SMILES: Cc1noc(C)c1Cn1cc(N2C(=O)CN(Cc3cccc(CO)c3)C2=O)cn1 [Example 10-33, 3-(1-((3,5-dimethylisoxazol-4-yl)methyl)-1H-pyrazol-4-yl)-1-(3-(hydroxymethyl)benzyl)imidazolidine-2,4-dione]

- pIC50 [3]: 7.70
SMILES: Cc1noc(C)c1Cn1cc(N2C(=O)[C@@H]3Cc4ccc(O)cc4CN3C2=O)cn1 [Example 13-1, (S)-2-(1-((3,5-dimethylisoxazol-4-yl)methyl)-1H-pyrazol-4-yl)-7-hydroxy-10,10a-dihydroimidazo[1,5-b]isoquinoline-1,3(2H,5H)-dione]

- pIC50 [3]: 8.00
SMILES: Cc1noc(C)c1Cn1cc(N2C(=O)[C@H](C)N(Cc3ccccc3)C2=O)cn1 [Example 12-11, (S)-1-benzyl-3-(1-((3,5-dimethylisoxazol-4-yl)methyl)-1H-pyrazol-4-yl)-5-methylimidazolidine-2,4-dione]

- pIC50 (Table A, read-out: hT2R8 IC50): 5.67
SMILES: Cc1ccccc1S(=O)(=O)Nc1cnn(Cc2c(C)noc2C)c1 [Example 4-102, N-(1-((3,5-dimethylisoxazol-4-yl)methyl)-1H-pyrazol-4-yl)-2-methylbenzenesulfonamide]

- pIC50 [1]: 5.68
SMILES: Cc1noc(C)c1Cn1cc(N2C(=O)N(Cc3cccc(OCCN(C)C)c3)C(C)(C)C2=O)cn1 [Example 12-87, 1-(3-(2-(dimethylamino)ethoxy)benzyl)-3-(1-((3,5-dimethylisoxazol-4-yl)methyl)-1H-pyrazol-4-yl)-5,5-dimethylimidazolidine-2,4-dione]

- pIC50 [3]: 7.52
SMILES: Cc1noc(C)c1Cn1cc(N2C(=O)C3Cc4cc(O)ccc4CN3C2=O)cn1 (stereo not shown) [Example 13-3, 2-(1-((3,5-dimethylisoxazol-4-yl)methyl)-1H-pyrazol-4-yl)-8-hydroxy-10,10a-dihydroimidazo[1,5-b]isoquinoline-1,3(2H,5H)-dione]

- pIC50 [3]: 6.80
SMILES: Cc1noc(C)c1Cn1cc(N2C(=O)N(Cc3cc(C)n(C)n3)C(C)(C)C2=O)cn1 [Example 12-25, 1-((1,5-dimethyl-1H-pyrazol-3-yl)methyl)-3-(1-((3,5-dimethylisoxazol-4-yl)methyl)-1H-pyrazol-4-yl)-5,5-dimethylimidazolidine-2,4-dione]

- pIC50 [3]: 6.82
- pIC50 [2]: 7.77
SMILES: Cc1noc(C)c1Cn1cc(N2C(=O)C(Cc3ccccc3)N(C)C2=O)cn1 (stereo not shown) [Example 10-42, 5-benzyl-3-(1-((3,5-dimethylisoxazol-4-yl)methyl)-1H-pyrazol-4-yl)-1-methylimidazolidine-2,4-dione]

- pIC50 [1]: 6.13
SMILES: Cc1ccc(CN2C(=O)N(c3cnn(Cc4c(C)noc4C)c3)C(=O)C2(C)C)cc1 [Example 12-81, 3-(1-((3,5-dimethylisoxazol-4-yl)methyl)-1H-pyrazol-4-yl)-5,5-dimethyl-1-(4-methylbenzyl)imidazolidine-2,4-dione]

- pIC50 [1]: 7.00
SMILES: Cc1noc(C)c1Cn1cc(N2C(=O)N(Cc3cccc(O)c3O)C(C)(C)C2=O)cn1 [Example 12-43, 1-(2,3-dihydroxybenzyl)-3-(1-((3,5-dimethylisoxazol-4-yl)methyl)-1H-pyrazol-4-yl)-5,5-dimethylimidazolidine-2,4-dione]

- pIC50 (Table A, read-out: hT2R8 IC50): 6.14
SMILES: Cc1noc(C)c1Cn1cc(NC(=O)c2cccc(S(C)(=O)=O)c2)cn1 [Example 4-26, N-(1-((3,5-dimethylisoxazol-4-yl)methyl)-1H-pyrazol-4-yl)-3-(methylsulfonyl)benzamide]

Second part, the compound before the results:

SMILES: COC(=O)COc1cccc(CN2C(=O)N(c3cnn(Cc4c(C)noc4C)c3)C(=O)C2(C)C)c1 [Example 12-75, methyl 2-(3-((3-(1-((3,5-dimethylisoxazol-4-yl)methyl)-1H-pyrazol-4-yl)-5,5-dimethyl-2,4-dioxoimidazolidin-1-yl)methyl)phenoxy)acetate]
- pIC50 [1]: 6.28

SMILES: Cc1noc(C)c1Cn1cc(N2C(=O)CN(Cc3ccc(F)cc3)C2=O)cn1 [Example 10-31, 3-(1-((3,5-dimethylisoxazol-4-yl)methyl)-1H-pyrazol-4-yl)-1-(4-fluorobenzyl)imidazolidine-2,4-dione]
- pIC50 [2]: 7.35
- IC50: 0.05 µM

SMILES: Cc1cccc(CN2CC(=O)N(c3cnn(Cc4c(C)noc4C)c3)C2=O)c1 [Example 10-26, 3-(1-((3,5-dimethylisoxazol-4-yl)methyl)-1H-pyrazol-4-yl)-1-(3-methylbenzyl)imidazolidine-2,4-dione]
- pIC50 [2]: 7.72
- IC50: 0.02 µM

SMILES: Cc1ccc(CN2C(=O)N(c3cnn(Cc4c(C)noc4C)c3)C(=O)C2(C)C)c(C)c1 [Example 12-86, 1-(2,4-dimethylbenzyl)-3-(1-((3,5-dimethylisoxazol-4-yl)methyl)-1H-pyrazol-4-yl)-5,5-dimethylimidazolidine-2,4-dione]
- pIC50 [1]: 5.72

SMILES: Cc1noc(C)c1Cn1cc(N2C(=O)CN(Cc3ccccc3C(F)(F)F)C2=O)cn1 [Example 10-22, 3-(1-((3,5-dimethylisoxazol-4-yl)methyl)-1H-pyrazol-4-yl)-1-(2-(trifluoromethyl)benzyl)imidazolidine-2,4-dione]
- pIC50 [2]: 6.66
- IC50: 0.2 µM

SMILES: Cc1noc(C)c1Cn1cc(N2C(=O)C(C)N(Cc3ccccc3)C2=O)cn1 (stereo not shown) [Example 10-43, 1-benzyl-3-(1-((3,5-dimethylisoxazol-4-yl)methyl)-1′-1-pyrazol-4-yl)-5-methylimidazolidine-2,4-dione]
- pIC50 [3]: 7.70
- pIC50 [2]: 7.70

SMILES: Cc1noc(C)c1Cn1cc(NC(=S)NCc2ccccc2)cn1 [Example 4-110, 1-benzyl-3-(1-((3,5-dimethylisoxazol-4-yl)methyl)-1H-pyrazol-4-yl)thiourea]
- pIC50 (Table A, read-out: hT2R8 IC50): 5.96

SMILES: Cc1noc(C)c1Cn1cc(N2C(=O)CN(Cc3ccc(O)cc3)C2=O)cn1 [Example 10-12, 3-(1-((3,5-dimethylisoxazol-4-yl)methyl)-1H-pyrazol-4-yl)-1-(4-hydroxybenzyl)imidazolidine-2,4-dione]
- pIC50 [2]: 7.37
- IC50: 0.06 µM

SMILES: Cc1noc(C)c1Cn1cc(N2C(=O)N(CCc3cccc(F)c3)C(C)(C)C2=O)cn1 [Example 12-50, 3-(1-((3,5-dimethylisoxazol-4-yl)methyl)-1H-pyrazol-4-yl)-1-(3-fluorophenethyl)-5,5-dimethylimidazolidine-2,4-dione]
- pIC50 [1]: 6.82

SMILES: COC(=O)c1cccc(CN2C(=O)N(c3cnn(Cc4c(C)noc4C)c3)C(=O)C2(C)C)c1 [Example 12-55]
- pIC50 [1]: 6.66

SMILES: Cc1ccc(CN2CC(=O)N(c3cnn(Cc4c(C)noc4C)c3)C2=O)cc1 [Example 10-30, 3-(1-((3,5-dimethylisoxazol-4-yl)methyl)-1H-pyrazol-4-yl)-1-(4-methylbenzyl)imidazolidine-2,4-dione]
- pIC50 [2]: 7.19
- IC50: 0.06 µM

SMILES: Cc1noc(C)c1Cn1cc(NC(=O)c2cc3c(cc2Br)OCCO3)cn1 [Example 4-89, 7-bromo-N-(1-((3,5-dimethylisoxazol-4-yl)methyl)-1H-pyrazol-4-yl)-2,3-dihydrobenzo[b][1,4]dioxine-6-carboxamide]
- pIC50 (Table A, read-out: hT2R8 IC50): 6.52
